Where a SMILES comes first, the peptide text is derived from it. [ ]: non-standard residue; d: D form. The star is where a group is joined. FITC = O=C1OC2(c3ccc(O)cc3Oc3cc(O)ccc32)c2ccc(NC(=S)*)cc21; Dip = N[C@H](C(=O)O)C(c1ccccc1)c1ccccc1
Assays:
[1] = Balb/c mice, FITC fluorescence (485/535 nm) in blood samples
Procedure: At indicated time points, the mice were euthanized and the blood was taken from the heart. Sodium heparin was added to the blood samples at a concentration of 15 IU/ml. The fluorescence intensity of FITC‐LTX‐315 in the serum was measured using Tecan Infinite F200 Fluorescence Microplate Reader (Tecan, Seestrasse, Männedorf, Switzerland) at an excitation and emission wavelength of 485 and 535 nm, respectively.

[2] = due to high serum protein binding ability; cited from earlier work
From the text: Recently, several cationic antimicrobial peptides (CAPs), such as LTX‐315, have been extensively investigated as novel anticancer agents due to their ability to kill tumor cells and create a highly proinflammatory status of the TME, mainly via causing the destabilization of tumor cell plasma and mitochondrial membrane.[12] Subsequently, the CAPs trigger the immunogenic cell death (ICD) in tumor cells via Bax/Bak‐1 and caspase apoptotic pathways, which is along with the exposure or release of tumor antigens, danger‐associated molecular pattern (DAMP) molecules such as calreticulin, ATP and high ...

Row | SMILES | elimination after i.v. injection [1] | fate upon systemic administration [2]
1 | NCCCC[C@H](NC(=O)[C@@H](NC(=O)[C@H](Cc1c[nH]c2ccccc12)NC(=O)[C@H](CCCCN)NC(=O)[C@H](CCCCN)NC(=O)[C@H](Cc1c[nH]c2ccccc12)NC(=O)[C@H](Cc1c[nH]c2ccccc12)NC(=O)[C@H](CCCCN)NC(=O)[C@H](CCCCN)NC(=S)Nc1ccc2c(c1)C(=O)OC21c2ccc(O)cc2Oc2cc(O)ccc21)C(c1ccccc1)c1ccccc1)C(N)=O [FITC-LTX] ({FITC}-KKWWKKW[Dip]K-NH2) | eliminated within few minutes | 
2 | NCCCC[C@H](NC(=O)[C@@H](NC(=O)[C@H](Cc1c[nH]c2ccccc12)NC(=O)[C@H](CCCCN)NC(=O)[C@H](CCCCN)NC(=O)[C@H](Cc1c[nH]c2ccccc12)NC(=O)[C@H](Cc1c[nH]c2ccccc12)NC(=O)[C@H](CCCCN)NC(=O)[C@@H](N)CCCCN)C(c1ccccc1)c1ccccc1)C(N)=O [LTX-315] (H-KKWWKKW[Dip]K-NH2) |  | rapidly degraded into nontoxic metabolites
